Patent US11964973B2 (priority 2019, dated 2024)
Where two headings read alike, the source gives them in different places. Each block holds one compound with its values, some of them ahead of it.

What was measured:
human DGKζ = human DGKζ (Homo sapiens (Human), UniProt Q13574); experiment: biochemical; assay type: biochemical; settings: liposome (LIPGLO) assay
[1] = system: Human venous whole blood (IFN-γ); experiment: Human whole blood IFN-γ assay; assay type: cell-based; settings: Homo sapiens
Experimental: Assay 10: Human Whole Blood IFN-γ Assay
Human venous whole blood (22.5 μL per well), obtained from healthy donors, was pre-treated with compounds for one hour at 37° C. in a humidified 95% air/5% CO2 incubator. The blood was stimulated with 2.5 μL anti-human CD3 and anti-CD28 mAb at a final concentration of 1 μg/mL each for 24 hours at 37° C. IFN-γ in the supernatants was measured using AlphLISA kit (Cat #AL217).

[2] = system: human venous whole blood, CD8 positive population (pERK); experiment: DGK human whole blood pERK assay; assay type: cell-based
Experimental: Assay 11: DGK Human Whole Blood pERK Assay
Human whole blood ERK phosphorylation assay was performed with human venous whole blood obtained from healthy donors (drawn with Heparin as anti-coagulant). […] Heparinized human whole blood was added to the compound plate at 9 μL per well and incubated for one hour at 37° C. in a humidified 95%, air/5% CO2 incubator. After one hour of compound incubation, 1 μL of human anti-CD3 antibody (in-house) in the presence of cross-linking antibody goat anti-mouse IgG (4 μg/mL) was added to the well at 1 μg/mL final concentration for stimulation of pathway and additionally incubated for 15 minutes at 37° C. […] Samples analyzed using the Intellicyt® iQue Screener PLUS. The pERK activation was quantitated by the percentage of pERK positive population within CD8 positive population.

[3] = human whole blood IFN-γ, read-out: INFg Whole Blood
[4] = human whole blood pERK, read-out: DGK HWB
[5] = read-out: DGK HWB, human whole blood pERK
[6] = Homo sapiens, CD8 positive, human whole blood pERK, read-out: DGK HWB
[7] = Homo sapiens, CD8 positive, read-out: DGK HWB, human whole blood pERK

Chain of human DGKζ (Q13574 whole entry, looked up): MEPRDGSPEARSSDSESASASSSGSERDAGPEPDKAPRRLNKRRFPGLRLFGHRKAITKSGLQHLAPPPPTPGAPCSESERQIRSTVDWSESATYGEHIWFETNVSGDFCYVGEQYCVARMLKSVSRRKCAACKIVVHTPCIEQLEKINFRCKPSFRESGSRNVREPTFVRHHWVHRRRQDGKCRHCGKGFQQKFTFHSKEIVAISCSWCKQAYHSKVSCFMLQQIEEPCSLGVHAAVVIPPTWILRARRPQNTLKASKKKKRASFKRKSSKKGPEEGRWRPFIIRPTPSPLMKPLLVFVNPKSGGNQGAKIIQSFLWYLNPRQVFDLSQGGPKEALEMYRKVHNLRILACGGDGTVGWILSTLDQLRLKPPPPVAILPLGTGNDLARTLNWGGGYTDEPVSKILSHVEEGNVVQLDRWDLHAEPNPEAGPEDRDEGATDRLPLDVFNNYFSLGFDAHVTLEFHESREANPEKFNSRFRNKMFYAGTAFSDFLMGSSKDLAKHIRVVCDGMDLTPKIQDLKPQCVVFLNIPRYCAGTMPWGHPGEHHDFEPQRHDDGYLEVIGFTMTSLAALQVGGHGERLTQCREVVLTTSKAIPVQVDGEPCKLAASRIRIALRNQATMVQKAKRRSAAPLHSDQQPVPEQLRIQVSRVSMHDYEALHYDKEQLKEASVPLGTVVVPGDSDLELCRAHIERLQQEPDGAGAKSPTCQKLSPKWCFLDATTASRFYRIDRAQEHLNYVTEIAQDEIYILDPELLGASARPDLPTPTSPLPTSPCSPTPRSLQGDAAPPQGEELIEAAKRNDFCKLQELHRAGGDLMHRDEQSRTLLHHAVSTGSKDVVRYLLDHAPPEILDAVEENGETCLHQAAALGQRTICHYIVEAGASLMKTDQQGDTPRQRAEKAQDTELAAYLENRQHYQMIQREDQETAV

Structure (SMILES): CC[C@@H]1CN(c2cc(=O)n(C)c3ccc(C#N)nc23)CC[C@H]1Oc1ccc(OC(C)C)cn1 [Example 192, 8-((3R,4R)-3-ethyl-4-((5-isopropoxypyridin-2-yl)oxy)piperidin-1-yl)-5-methyl-6-oxo-5,6-dihydro-1,5-naphthyridine-2-carbonitrile]
- IC50 (human DGKζ; Table A, read-out: DGKζ): 420 nM
- EC50 [1, 3]: 290 nM

Structure (SMILES): CCO[C@H]1CN(c2cc(=O)n(C)c3ccc(C#N)nc23)CC[C@@H]1Oc1ccccc1C(F)(F)F [Example 346, 8-((3S,4S)-3-ethoxy-4-(2-(trifluoromethyl)phenoxy)piperidin-1-yl)-5-methyl-6-oxo-5,6-dihydro-1,5-naphthyridine-2-carbonitrile]
- EC50 [2, 4]: 20000 nM

Structure (SMILES): CCO[C@H]1CN(c2cc(=O)n(C)c3ccc(C#N)nc23)CC[C@H]1Oc1ccc(OC(C)C)cn1 (relative stereo) [Example 371, cis-8-(3-Ethoxy-4-((5-isopropoxypyridin-2-yl)oxy)piperidin-1-yl)-5-methyl-6-oxo-5,6-dihydro-1,5-naphthyridine-2-carbonitrile]
- EC50 [2, 4]: 3600 nM

- EC50 [2, 5]: 20000 nM
Structure (SMILES): C[C@H]1CN(c2cc(=O)n(C)c3ccc(C#N)nc23)[C@@H](C)CC1N(C)Cc1ccc(F)cc1 (single isomer, unassigned) [Example 334]

Structure (SMILES): Cn1c(=O)cc(N2CC[C@@H](Oc3cccc(C(F)(F)F)c3)[C@H](OCC3CC3)C2)c2nc(C#N)ccc21 [Example 388, 8-((3R,4R)-3-(cyclopropylmethoxy)-4-(3-(trifluoromethyl)phenoxy)piperidin-1-yl)-5-methyl-6-oxo-5,6-dihydro-1,5-naphthyridine-2-carbonitrile]
- EC50 ([2]; human whole blood, CD8 positive population, anti-CD3 stimulation, top concentration 20 μM, read-out: DGK HWB (human whole blood pERK)): 20000 nM

Structure (SMILES): CCO[C@H]1CN(c2cc(=O)n(C)c3ccc(C#N)nc23)CC[C@@H]1Oc1ccc(OC(C)C)cc1 [Example 347, 8-((3S,4S)-3-ethoxy-4-(4-isopropoxyphenoxy)piperidin-1-yl)-5-methyl-6-oxo-5,6-dihydro-1,5-naphthyridine-2-carbonitrile]
- EC50 [2, 6]: 350 nM

Structure (SMILES): CCO[C@H]1CN(c2cc(=O)n(C)c3ccc(C#N)nc23)CC[C@@H]1Oc1cc(C(F)(F)F)ccn1 [Example 366, 8-((3S,4S)-3-ethoxy-4-((4-(trifluoromethyl)pyridin-2-yl)oxy)piperidin-1-yl)-5-methyl-6-oxo-5,6-dihydro-1,5-naphthyridine-2-carbonitrile]
- EC50 [2, 4]: 20000 nM

Structure (SMILES): CC1CN(c2c(C#N)c(=O)n(C)c3ccc(C#N)nc23)CCC1N(C)C1CCC(F)(F)CC1 (single isomer, unassigned) [Example 329]
- EC50 [2, 6]: 13000 nM

- EC50 [2, 7]: 1800 nM
Structure (SMILES): C[C@@H]1CC(Oc2cccc(C(F)(F)F)c2)[C@@H](C)CN1c1nc(=O)n(C)c2ccc(C#N)nc12 (stereo in doubt) [Example 251, 4-((2R,5S)-2,5-dimethyl-4-(3-(trifluoromethyl)phenoxy)piperidin-1-yl)-1-methyl-2-oxo-1,2-dihydropyrido[3,2-d]pyrimidine-6-carbonitrile]

Structure (SMILES): CCO[C@H]1CN(c2cc(=O)n(C)c3ccc(C#N)nc23)CC[C@@H]1Oc1ccc(C(F)(F)F)cc1 [Example 344, 8-((3S,4S)-3-ethoxy-4-(4-(trifluoromethyl)phenoxy)piperidin-1-yl)-5-methyl-6-oxo-5,6-dihydro-1,5-naphthyridine-2-carbonitrile]
- EC50 [2, 4]: 20000 nM

- EC50 [2, 7]: 730 nM
Structure (SMILES): CC[C@@H]1CN(c2nc(=O)n(C)c3ccc(C#N)nc23)[C@H](C)C[C@@H]1Oc1ccc(OC(C)C)cn1 [Example 305, 4-((2R,4S,5R)-5-ethyl-4-((5-isopropoxypyridin-2-yl)oxy)-2-methylpiperidin-1-yl)-1-methyl-2-oxo-1,2-dihydropyrido[3,2-d]pyrimidine-6-carbonitrile]

Structure (SMILES): C[C@H]1CN(c2cc(=O)n(C)c3ccc(C#N)nc23)[C@@H](C)C[C@H]1Oc1cccc(C#N)c1 [Example 314, 8-((2S,4R,5S)-4-(3-cyanophenoxy)-2,5-dimethylpiperidin-1-yl)-5-methyl-6-oxo-5,6-dihydro-1,5-naphthyridine-2-carbonitrile]
- EC50 [2, 6]: 16000 nM

- EC50 [2, 5]: 800 nM
Structure (SMILES): C[C@@H]1CN(c2nc(=O)n(C)c3ccc(C#N)nc23)[C@H](C)CC1Oc1cccc(C(F)(F)F)c1 (stereo partly drawn) [Example 257, 4-((2R,5R)-2,5-dimethyl-4-(3-(trifluoromethyl)phenoxy)piperidin-1-yl)-1-methyl-2-oxo-1,2-dihydropyrido[3,2-d]pyrimidine-6-carbonitrile]

- EC50 ([2]; Homo sapiens, CD8 positive, read-out: DGK HWB (human whole blood pERK), human whole blood, CD8 positive population, anti-CD3 stimulation, top concentration 20 μM): 17000 nM
Structure (SMILES): Cn1c(=O)cc(N2CC[C@@H](Oc3cccc(C(F)(F)F)c3)[C@H](OCCN3CCOCC3)C2)c2nc(C#N)ccc21 [Example 391, 5-methyl-8-((3R,4R)-3-(2-morpholinoethoxy)-4-(3-(trifluoromethyl)phenoxy)piperidin-1-yl)-6-oxo-5,6-dihydro-1,5-naphthyridine-2-carbonitrile]

- EC50 [2, 7]: 170 nM
Structure (SMILES): CC[C@@H]1CN(c2nc(=O)n(C)c3ccc(C#N)nc23)[C@@H](C)C[C@@H]1Oc1ccc(OC(C)C)cn1 [Example 307, 4-((2S,4S,5R)-5-ethyl-4-((5-isopropoxypyridin-2-yl)oxy)-2-methylpiperidin-1-yl)-1-methyl-2-oxo-1,2-dihydropyrido[3,2-d]pyrimidine-6-carbonitrile]

- EC50 [2, 7]: 680 nM
Structure (SMILES): CC[C@@H]1CN(c2cc(=O)n(C)c3ccc(C#N)nc23)[C@H](C)C[C@H]1Oc1ccc(OC(C)C)cn1 [Example 297, 8-((2R,4R,5R)-5-ethyl-4-((5-isopropoxypyridin-2-yl)oxy)-2-methylpiperidin-1-yl)-5-methyl-6-oxo-5,6-dihydro-1,5-naphthyridine-2-carbonitrile]

- EC50 [2, 7]: 13000 nM
Structure (SMILES): CC[C@@H]1CN(c2cc(=O)n(C)c3ccc(C#N)nc23)[C@@H](C)C[C@H]1Oc1ccc(OC(C)C)cn1 [Example 296, 8-((2S,4R,5R)-5-ethyl-4-((5-isopropoxypyridin-2-yl)oxy)-2-methylpiperidin-1-yl)-5-methyl-6-oxo-5,6-dihydro-1,5-naphthyridine-2-carbonitrile]

Structure (SMILES): CCO[C@H]1CN(c2cc(=O)n(C)c3ccc(C#N)nc23)CC[C@@H]1Oc1cccc(C(F)(F)F)n1 (relative stereo) [Example 363, trans-8-(3-Ethoxy-4-((6-(trifluoromethyl)pyridin-2-yl)oxy)piperidin-1-yl)-5-methyl-6-oxo-5,6-dihydro-1,5-naphthyridine-2-carbonitrile]
- EC50 [2, 4]: 1100 nM

Structure (SMILES): CCO[C@H]1CN(c2cc(=O)n(C)c3ccc(C#N)nc23)CC[C@H]1Oc1cccc(C(F)(F)F)c1 (relative stereo) [Example 369, cis-8-(3-Ethoxy-4-(3-(trifluoromethyl)phenoxy)piperidin-1-yl)-5-methyl-6-oxo-5,6-dihydro-1,5-naphthyridine-2-carbonitrile]
- EC50 [2, 6]: 620 nM

Structure (SMILES): CCO[C@H]1CN(c2cc(=O)n(C)c3ccc(C#N)nc23)CC[C@@H]1Oc1nc2ccccc2s1 [Example 374]
- EC50 [2, 4]: 20000 nM

Structure (SMILES): CC[C@@H]1CN(c2cc(=O)n(C)c3ccc(C#N)nc23)CC[C@@H]1Oc1ccc(OC(C)C)cn1 [Example 203, 8-((3R,4S)-3-ethyl-4-((5-isopropoxypyridin-2-yl)oxy)piperidin-1-yl)-5-methyl-6-oxo-5,6-dihydro-1,5-naphthyridine-2-carbonitrile]
- IC50 (human DGKζ; Table A, read-out: DGKζ): 230 nM

Structure (SMILES): Cn1c(=O)nc(N2CC[C@@H](Oc3cccc(C(F)(F)F)c3)[C@H](O)C2)c2nc(C#N)ccc21 (single isomer, unassigned) [Example 273, (+/−)-trans-4-(3-hydroxy-4-(3-(trifluoromethyl)phenoxy)piperidin-1-yl)-1-methyl-2-oxo-1,2-dihydropyrido[3,2-d]pyrimidine-6-carbonitrile]
- IC50 (human DGKζ; Table A, read-out: DGKζ): 4700 nM

Structure (SMILES): CC[C@@H]1CN(c2cc(=O)n(C)c3ccc(C#N)nc23)CC[C@@H]1Oc1ccc(OC(C)C)cn1 [Example 204, 8-((3R,4S)-3-ethyl-4-((5-isopropoxypyridin-2-yl)oxy)piperidin-1-yl)-5-methyl-6-oxo-5,6-dihydro-1,5-naphthyridine-2-carbonitrile]
- IC50 (human DGKζ; Table A, read-out: DGKζ): 330 nM

Structure (SMILES): CC[C@@H]1CN(c2cc(=O)n(C)c3ccc(C#N)nc23)CC[C@H]1Oc1ccc(OC(C)C)cc1 [Example 161, 8-((3R,4R)-3-ethyl-4-(4-isopropoxyphenoxy)piperidin-1-yl)-5-methyl-6-oxo-5,6-dihydro-1,5-naphthyridine-2-carbonitrile]
- IC50 (human DGKζ; read-out: DGKζ LIPGLO IC50): 540 nM
- EC50 ([1]; 24 h, human whole blood, anti-CD3 plus anti-CD28, 24 hours, read-out: INFg Whole Blood Normalized Agonist EC50): 2400 nM

Structure (SMILES): C[C@@H]1CN(c2cc(=O)n(C)c3ccc(C#N)nc23)CC[C@@H]1Oc1ncc(C(F)(F)F)cn1 [Example 222, 5-methyl-8-((3R,4S)-3-methyl-4-((5-(trifluoromethyl)pyrimidin-2-yl)oxy)piperidin-1-yl)-6-oxo-5,6-dihydro-1,5-naphthyridine-2-carbonitrile]
- EC50 [1, 3]: 3900 nM
